Results: patent US11174252B2, “Heterocyclic compounds as kinase inhibitors” (priority 2018, dated 2021)
Counter-ions that a name gives are not always drawn. Like-named read-outs stand apart in the source and are kept apart here.

Columns and labels:
CDK6 = CDK6 (Homo sapiens (Human), UniProt Q00534); experiment: biochemical; format: biochemical
PI3Kδ kinase = PI3Kδ kinase (Homo sapiens (Human), UniProt O00329); experiment: PI3Kδ kinase ADP-Glo assay (Reaction Biology Corporation); details: read-out: PI3Kδ IC50
Chain of PI3Kδ kinase (O00329 whole entry): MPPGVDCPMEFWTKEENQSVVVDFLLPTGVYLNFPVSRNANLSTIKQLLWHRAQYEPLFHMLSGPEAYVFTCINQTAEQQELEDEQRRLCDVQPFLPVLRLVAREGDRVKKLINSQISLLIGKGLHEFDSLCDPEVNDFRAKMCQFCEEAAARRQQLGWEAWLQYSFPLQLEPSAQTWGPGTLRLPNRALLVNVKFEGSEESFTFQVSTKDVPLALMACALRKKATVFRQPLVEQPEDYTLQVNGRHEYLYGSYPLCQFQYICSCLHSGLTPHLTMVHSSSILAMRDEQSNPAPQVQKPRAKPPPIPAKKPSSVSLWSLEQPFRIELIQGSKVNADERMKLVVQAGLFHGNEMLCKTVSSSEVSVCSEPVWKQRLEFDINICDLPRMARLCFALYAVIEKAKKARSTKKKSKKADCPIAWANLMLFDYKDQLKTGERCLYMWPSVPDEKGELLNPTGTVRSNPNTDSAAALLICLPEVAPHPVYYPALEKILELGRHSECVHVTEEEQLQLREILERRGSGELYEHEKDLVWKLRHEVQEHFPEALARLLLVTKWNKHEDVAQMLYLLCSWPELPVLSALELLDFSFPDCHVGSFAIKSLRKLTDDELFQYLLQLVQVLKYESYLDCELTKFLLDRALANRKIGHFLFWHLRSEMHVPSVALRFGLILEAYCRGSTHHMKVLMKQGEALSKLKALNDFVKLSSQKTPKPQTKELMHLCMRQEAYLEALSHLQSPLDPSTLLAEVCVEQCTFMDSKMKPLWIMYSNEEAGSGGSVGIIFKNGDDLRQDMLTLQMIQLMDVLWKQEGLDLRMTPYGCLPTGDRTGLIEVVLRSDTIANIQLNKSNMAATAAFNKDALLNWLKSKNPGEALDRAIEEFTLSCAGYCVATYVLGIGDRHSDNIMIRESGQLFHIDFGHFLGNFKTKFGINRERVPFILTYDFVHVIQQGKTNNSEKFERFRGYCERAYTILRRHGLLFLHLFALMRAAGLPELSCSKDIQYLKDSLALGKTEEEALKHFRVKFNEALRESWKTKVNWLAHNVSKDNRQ
Chain of PI3Kδ kinase (P27986 whole entry partner): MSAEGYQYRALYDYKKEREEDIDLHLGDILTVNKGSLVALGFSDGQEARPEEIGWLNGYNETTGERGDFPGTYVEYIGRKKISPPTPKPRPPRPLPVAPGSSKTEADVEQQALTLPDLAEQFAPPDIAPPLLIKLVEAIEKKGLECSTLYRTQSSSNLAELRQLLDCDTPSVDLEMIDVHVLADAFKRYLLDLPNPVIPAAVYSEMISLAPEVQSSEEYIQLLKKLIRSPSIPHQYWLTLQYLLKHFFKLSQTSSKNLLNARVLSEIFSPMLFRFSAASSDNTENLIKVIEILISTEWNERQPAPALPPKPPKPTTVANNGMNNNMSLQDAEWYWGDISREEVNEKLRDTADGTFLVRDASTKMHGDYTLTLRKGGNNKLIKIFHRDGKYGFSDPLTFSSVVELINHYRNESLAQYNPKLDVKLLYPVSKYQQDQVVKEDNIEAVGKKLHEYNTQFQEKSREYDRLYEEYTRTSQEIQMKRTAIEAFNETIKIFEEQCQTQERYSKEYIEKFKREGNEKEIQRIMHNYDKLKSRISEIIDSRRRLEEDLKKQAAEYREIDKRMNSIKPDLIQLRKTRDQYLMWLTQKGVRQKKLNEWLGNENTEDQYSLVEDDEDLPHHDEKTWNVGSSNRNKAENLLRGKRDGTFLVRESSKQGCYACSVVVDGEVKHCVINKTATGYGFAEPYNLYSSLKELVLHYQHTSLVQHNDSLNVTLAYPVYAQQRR

Hs-578T = experiment: Cancer cell proliferation assay, single agent; format: cell-based; details: Homo sapiens, Treatment Duration 24 h
DU4475 = experiment: Cancer cell proliferation assay, single agent; format: cell-based; details: Homo sapiens, DU-4475, 168 h, read-out: IC50 DU4475
A549 = experiment: Cancer cell proliferation assay, single agent; format: cell-based; details: Homo sapiens, A549, 72 h, read-out: IC50 A549
MCF-7 = experiment: Cancer cell proliferation assay, single agent; format: cell-based; details: Homo sapiens, read-out: IC50 MCF-7
BT-549 = experiment: Cancer cell proliferation assay, single agent; format: cell-based; details: Homo sapiens, BT-549, 24 h, read-out: IC50 BT-549
[1] = system: pRb (Ser780 phosphorylation state of RB1) in MCF-7 cells; experiment: Determination of pRb levels (Ser780 phosphorylation of RB1, ELISA) in MCF-7 cells; format: cell-based; details: Homo sapiens, 24 h; for inhibition at 0.01 µM: MCF7, 0.01 μM; for inhibition at 0.1 µM: MCF7, 0.1 μM; for inhibition at 1 µM: MCF7, 1 μM
Method: […] of the retinoblastoma protein (pRb) by cyclin D:Cdk4/6 complexes results in […] pRb, which is a clinically relevant biomarker associated with CDK4 or CDK6 inhibition. As a confirmatory measure of functional activity of CDK4/6, the Ser780 phosphorylation state of RB1 was assessed. MCF-7 cells were plated at 2.5×10^5 to 3.0×10^6 cells/well in 6-well cell-culture plates and incubated at 37° C. for 24 h in MEM medium supplemented with 10% FBS. Cells were treated for 24 h with a medium containing test compound at various concentrations (e.g., 0.01, 0.1, 1 μM) or with DMSO (≤1%) in duplicate. After incubation period, the media was removed, and cells were rinsed once with ice-cold PBS and lysed with 0.2 mL of Cell Lysis Buffer containing 1 mM PMSF and Protease Inhibitor. Protein concentration was estimated following Bradford method. The lysis and the pRB measurements were performed following the manufacturer's ELISA kit protocols and buffers (Cell Signaling Technology, Cat. No.: 13016C). pRb inhibition of test compounds were calculated as percentage of vehicle control.

CDK4 = CDK4 (Homo sapiens (Human), UniProt P11802); experiment: In vitro kinase inhibition, luminescence (ADP-Glo) with retinoblastoma substrate; format: biochemical
Chain of CDK4 (P11802 whole entry): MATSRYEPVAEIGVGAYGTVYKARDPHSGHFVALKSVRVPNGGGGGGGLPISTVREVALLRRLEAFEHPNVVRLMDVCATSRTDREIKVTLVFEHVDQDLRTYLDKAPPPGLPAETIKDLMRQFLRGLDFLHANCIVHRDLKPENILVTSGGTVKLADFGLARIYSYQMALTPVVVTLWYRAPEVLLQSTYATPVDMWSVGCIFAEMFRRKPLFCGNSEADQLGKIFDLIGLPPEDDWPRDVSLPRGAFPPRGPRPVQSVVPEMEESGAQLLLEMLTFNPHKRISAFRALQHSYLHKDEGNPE
Chain of CDK4 (P24385 whole entry partner): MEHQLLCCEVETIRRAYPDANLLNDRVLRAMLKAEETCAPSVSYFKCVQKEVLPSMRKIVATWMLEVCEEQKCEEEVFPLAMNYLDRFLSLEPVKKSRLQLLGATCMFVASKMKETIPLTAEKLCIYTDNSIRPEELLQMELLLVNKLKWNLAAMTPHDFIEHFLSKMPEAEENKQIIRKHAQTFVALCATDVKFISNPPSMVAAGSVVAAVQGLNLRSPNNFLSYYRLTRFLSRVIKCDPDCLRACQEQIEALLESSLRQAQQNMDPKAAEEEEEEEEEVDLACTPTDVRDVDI

HCT-116 = experiment: Cancer cell proliferation assay, single agent; format: cell-based; details: Homo sapiens, Treatment Duration 72 h, read-out: IC50 HCT116
FMS kinase = FMS kinase (Homo sapiens (Human), UniProt P07333); experiment: LanthaScreen kinase assay (ATP, fluorescent-PolyGT substrate, TR-FRET); format: biochemical
Chain of FMS kinase (P07333 20-972): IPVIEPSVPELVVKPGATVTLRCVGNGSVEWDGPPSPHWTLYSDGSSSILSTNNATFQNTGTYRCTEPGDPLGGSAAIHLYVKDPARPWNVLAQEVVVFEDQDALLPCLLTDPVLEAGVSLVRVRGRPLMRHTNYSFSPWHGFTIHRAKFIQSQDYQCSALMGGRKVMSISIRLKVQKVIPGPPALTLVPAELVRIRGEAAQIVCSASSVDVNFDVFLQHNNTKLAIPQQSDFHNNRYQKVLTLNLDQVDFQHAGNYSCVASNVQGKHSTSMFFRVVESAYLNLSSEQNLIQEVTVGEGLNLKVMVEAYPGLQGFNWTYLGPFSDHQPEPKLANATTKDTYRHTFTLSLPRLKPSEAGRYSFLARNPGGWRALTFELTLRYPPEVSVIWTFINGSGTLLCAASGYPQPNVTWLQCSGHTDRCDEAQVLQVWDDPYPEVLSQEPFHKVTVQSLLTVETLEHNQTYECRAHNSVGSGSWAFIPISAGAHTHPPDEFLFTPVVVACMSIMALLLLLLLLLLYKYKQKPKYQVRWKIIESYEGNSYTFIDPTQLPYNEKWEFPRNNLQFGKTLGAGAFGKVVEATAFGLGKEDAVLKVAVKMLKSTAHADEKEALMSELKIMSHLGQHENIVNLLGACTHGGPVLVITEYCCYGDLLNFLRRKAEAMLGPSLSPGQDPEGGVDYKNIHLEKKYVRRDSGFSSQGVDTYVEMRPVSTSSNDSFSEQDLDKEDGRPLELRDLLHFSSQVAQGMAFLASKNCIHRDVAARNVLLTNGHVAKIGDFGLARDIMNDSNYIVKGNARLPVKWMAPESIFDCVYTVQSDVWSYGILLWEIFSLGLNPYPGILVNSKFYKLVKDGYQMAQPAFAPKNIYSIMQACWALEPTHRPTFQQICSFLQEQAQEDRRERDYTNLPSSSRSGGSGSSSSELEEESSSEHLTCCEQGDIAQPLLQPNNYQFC

ZR-75-30 = experiment: Cancer cell proliferation assay, single agent; format: cell-based; details: Homo sapiens, Treatment Duration 24 h
CDK1 (cyclin B) = CDK1 (cyclin B) (Homo sapiens (Human), UniProt P06493); experiment: Z'-LYTE kinase assay; format: biochemical
Chain of CDK1 (cyclin B) (P06493 whole entry): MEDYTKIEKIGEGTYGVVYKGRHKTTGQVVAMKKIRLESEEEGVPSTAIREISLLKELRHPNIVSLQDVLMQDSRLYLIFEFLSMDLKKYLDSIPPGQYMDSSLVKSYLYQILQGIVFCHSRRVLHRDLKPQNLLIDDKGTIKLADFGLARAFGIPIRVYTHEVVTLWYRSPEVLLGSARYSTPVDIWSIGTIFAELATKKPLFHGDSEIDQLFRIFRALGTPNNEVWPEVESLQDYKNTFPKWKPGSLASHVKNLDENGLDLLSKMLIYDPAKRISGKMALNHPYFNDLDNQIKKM
Chain of CDK1 (cyclin B) (P14635 whole entry partner): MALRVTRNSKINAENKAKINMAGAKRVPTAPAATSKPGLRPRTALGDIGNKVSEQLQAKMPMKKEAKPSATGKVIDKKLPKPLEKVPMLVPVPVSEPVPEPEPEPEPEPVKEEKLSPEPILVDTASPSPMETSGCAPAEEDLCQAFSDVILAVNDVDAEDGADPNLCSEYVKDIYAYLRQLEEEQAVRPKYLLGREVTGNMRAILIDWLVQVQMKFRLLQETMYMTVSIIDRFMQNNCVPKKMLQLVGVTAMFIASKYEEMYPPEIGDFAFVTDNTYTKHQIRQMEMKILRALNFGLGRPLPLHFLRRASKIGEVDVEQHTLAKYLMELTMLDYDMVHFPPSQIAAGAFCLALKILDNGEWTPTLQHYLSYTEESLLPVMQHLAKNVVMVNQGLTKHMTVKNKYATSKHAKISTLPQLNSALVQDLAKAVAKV
From the text: The following equations were used for Z′-LYTE™ Screening Assay Data Analysis.

CDK2 (cyclin A) = CDK2 (cyclin A) (Homo sapiens (Human), UniProt P24941); experiment: Z'-LYTE kinase assay; format: biochemical
Method: IC50 values of compounds against CDK2 (cyclin A) were determined by Z'-LYTETM. […] The following equations were used for Z'-LYTETM Screening Assay Data Analysis.

CDK2 (cyclin E1) = CDK2 (cyclin E1) (Homo sapiens (Human), UniProt P24941); experiment: LanthaScreen Eu Kinase Binding Assay; details: read-out: CDK2/E IC50

SMILES | IC50 (CDK6) | IC50 (PI3Kδ kinase) | IC50 (Hs-578T) | IC50 (DU4475) | IC50 (A549) | IC50 (MCF-7; MCF7, Treatment Duration 72 h) | IC50 (BT-549) | inhibition at 0.01 µM [1] | inhibition at 0.1 µM [1] | inhibition at 1 µM [1] | IC50 (CDK4) | IC50 (HCT-116) | IC50 (FMS kinase) | IC50 (ZR-75-30) | IC50 (CDK1 (cyclin B)) | IC50 (CDK2 (cyclin A)) | IC50 (MCF-7; MCF7, 72 h) | IC50 (CDK2 (cyclin E1))
CC(C)N1CCOc2c(F)cc(-c3nc(Nc4ccc(N5CCNCC5)cn4)ncc3F)cc21 [Compound 1, 5-fluoro-4-(8-fluoro-4-isopropyl-3,4-dihydro-2H-benzo[b][1,4]oxazin-6-yl)-N-(5-(piperazin-1-yl)pyridin-2-yl)pyrimidin-2-amine] | 0.2 nM | 3360 nM | 60 nM | 575 nM | 65 nM | 68 nM | 3200 nM | 77% | 80% | 89% | 0.2 nM | 515 nM | 1330 nM | 49 nM | – | – | – | –
CC(C)N1CCOc2c(F)cc(-c3nc(Nc4ccc(N5CCNCC5)c(F)c4)ncc3F)cc21 [Compound 12, 5-fluoro-N-(3-fluoro-4-(piperazin-1-yl)phenyl)-4-(8-fluoro-4-isopropyl-3,4-dihydro-2H-benzo[b][1,4]oxazin-6-yl)pyrimidin-2-amine hydrochloride] | – | 674 nM | – | 40 nM | < 13 nM | – | 230 nM | -5% | 81% | 81% | – | < 13 nM | 29 nM | – | 3.9 nM | 0.7 nM | < 10 nM | 7.2 nM
